A word on the IC50: it is the point on the concentration scale where inhibition reaches its midpoint. A higher IC50 goes with weaker potency.

The target in assay [1] is T1, Poly [ADP-ribose] polymerase tankyrase-1 (Homo sapiens, UniProt O95271).
T1 sequence (O95271 whole entry): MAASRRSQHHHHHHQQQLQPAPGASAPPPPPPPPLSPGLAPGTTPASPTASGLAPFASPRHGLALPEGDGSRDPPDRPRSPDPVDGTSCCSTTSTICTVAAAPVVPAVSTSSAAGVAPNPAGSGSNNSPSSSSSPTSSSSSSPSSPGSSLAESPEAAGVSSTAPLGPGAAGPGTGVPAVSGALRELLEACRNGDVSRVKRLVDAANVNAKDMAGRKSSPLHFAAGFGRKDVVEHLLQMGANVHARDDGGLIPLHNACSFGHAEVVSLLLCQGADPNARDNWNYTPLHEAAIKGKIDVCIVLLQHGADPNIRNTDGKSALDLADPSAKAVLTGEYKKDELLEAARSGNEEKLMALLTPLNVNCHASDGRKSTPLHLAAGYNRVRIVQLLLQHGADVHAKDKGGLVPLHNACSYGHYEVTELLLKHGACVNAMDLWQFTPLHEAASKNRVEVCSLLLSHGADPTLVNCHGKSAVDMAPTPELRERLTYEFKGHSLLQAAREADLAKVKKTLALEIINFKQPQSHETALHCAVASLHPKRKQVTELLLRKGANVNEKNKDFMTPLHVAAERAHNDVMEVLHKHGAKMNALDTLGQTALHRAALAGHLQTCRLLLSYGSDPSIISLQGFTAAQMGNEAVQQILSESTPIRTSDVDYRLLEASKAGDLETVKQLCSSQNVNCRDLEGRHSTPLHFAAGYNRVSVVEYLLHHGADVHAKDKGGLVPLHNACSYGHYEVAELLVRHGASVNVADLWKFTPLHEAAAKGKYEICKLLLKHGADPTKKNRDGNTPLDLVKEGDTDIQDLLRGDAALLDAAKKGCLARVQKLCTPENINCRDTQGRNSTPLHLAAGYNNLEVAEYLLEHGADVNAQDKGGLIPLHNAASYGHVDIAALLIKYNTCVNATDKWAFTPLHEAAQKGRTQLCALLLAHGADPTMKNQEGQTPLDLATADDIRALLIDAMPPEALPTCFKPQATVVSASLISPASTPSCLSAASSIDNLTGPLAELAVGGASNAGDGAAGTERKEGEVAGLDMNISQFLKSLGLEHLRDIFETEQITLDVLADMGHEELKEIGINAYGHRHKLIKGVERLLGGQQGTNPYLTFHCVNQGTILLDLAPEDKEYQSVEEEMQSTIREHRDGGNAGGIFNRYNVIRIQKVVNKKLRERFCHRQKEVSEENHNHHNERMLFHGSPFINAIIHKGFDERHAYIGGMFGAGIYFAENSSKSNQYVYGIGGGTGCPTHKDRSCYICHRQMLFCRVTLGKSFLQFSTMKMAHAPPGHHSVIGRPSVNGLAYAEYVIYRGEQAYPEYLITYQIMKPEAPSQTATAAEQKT
As to the kind of experiment: Inhibition of human TNKS1 incubated for 30 mins prior to substrate addition measured after 2 hrs by HTRF method. Background: Time-resolved FRET reads energy transfer from a long-lived donor to a nearby acceptor.

The target in assay [2] is T1, Poly [ADP-ribose] polymerase tankyrase-1. Nature of the assay: Inhibition of human TNKS1 after 1 to 2 hrs by fluorescence polarization method.

Take `N#Cc1c(Cn2c(=O)n(C[C@H]3CC[C@H](C(=O)O)CC3)c(=O)c3ccccc32)cccc1C(F)(F)F`: the half-inhibitory concentration (IC50) in assay [1] is 31.6 nM; in assay [2], 7.94 nM. In the case of `Cc1c(F)ccc2c1c(=O)n(C[C@H]1CC[C@H](C(=O)O)CC1)c(=O)n2Cc1cccc(C(F)(F)F)c1C#N`, the 50% inhibitory concentration (IC50) was 50.1 nM in assay [1] and 6.31 nM in assay [2]. With `Cc1cccc2c1c(=O)n(C[C@H]1CC[C@@H](C(=O)O)CC1)c(=O)n2Cc1cccc(C(F)(F)F)c1C#N`, the IC50 in assay [1] is 316 nM.

The values are drawn from ChEMBL document CHEMBL3108764, “Tankyrase inhibitors: potential treatment of hyperproliferative diseases” (ACS Med Chem Lett, 2014).
